The source of these data is US20240246948A1, “BENZAMIDE DERIVATIVE, METHOD FOR PREPARING SAME, AND PHARMACEUTICAL COMPOSITION FOR PREVENTION OR TREATMENT OF CANCER CONTAINING SAME AS ACTIVE INGREDIENT” (HK INNO.N CORPORATION, priority 2021, published 2024).

Some results are limits rather than exact numbers.

Assay [1] addresses Ba/F3 EGFR L858R/T790M (LT) (Homo sapiens, UniProt P00533, T790M/L858R, cells depend on it). Description: Cell growth inhibitory ability in Ba/F3 cells overexpressing EGFR L858R/T790M (MTS, CellTiter 96 AQueous). The assay is classed as cell-based. As to conditions: 72 hours, MTS absorbance at 490 nm, read-out: Ba/F3 EGFR double mutant L858R/T790M, IC50. The procedure:
In order to confirm that the compound represented by formula 1 provided in one aspect of the present invention acts as an allosteric inhibitor against WT and mutant of EGFR, the cell growth inhibitory effect was evaluated in BaF3 cells overexpressing WT and mutant of EGFR.
More specifically, the cell growth inhibitory ability of the compound of the present invention to the Ba/F3 cell line overexpressing WT and mutant of EGFR was evaluated using CellTiter 96 AQueous Non-Radioactive Cell Proliferation Assay system of Promega, as follows. AQueous Non-Radioactive Cell Proliferation Assay is a method of confirming cell growth inhibitory ability by measuring the degree of color development by reducing MTS (3-(4,5-Dimethylthiazol-2-yl)-5-(3-carboxymethoxyphenyl)-2-(4-sulfophenyl)-2H-tetrazolium) to Formazan by a reductase secreted by mitochondria present in living cells in a cell culture state. The Ba/F3 EGFR WT and Ba/F3 EGFR del19/T790M/C797S (DTC), Ba/F3 EGFR L858R (L), Ba/F3 EGFR L858R/T790M (LT), and Ba/F3 EGFR L858R/T790M/C797S (LTC) mutation cell lines used in the present invention were purchased from the laboratory of Professor Byung-cheol Cho, Yonsei University. All cell lines were cultured in RPMI supplemented with 10% FBS, 1% penicillin-streptomycin and 1 μg/ml of puromycine in a 5% CO2 incubator at 37° C.
The cell survival inhibitory effect of the compound according to each EGFR mutation was analyzed by the following analysis method.
BaF3 cells were distributed in a 96-well cell culture plate at the density of 2000˜10000 cells/100 μL/well, and cultured for 24 hours. Thereafter, the concentration of the compound represented by formula 1 provided in one aspect of the present invention was prepared to double the final concentrations of 0.1 nM, 1 nM, 10 nM, 100 nM, 1000 nM and 10000 nM, and the compound was treated to the plate (100 μL/well). The plate was reacted in an incubator at 37° C. for 72 hours. Then, MTS was treated to the plate (20 μL/well) and the plate was incubated at 37° C. for 2 to 4 hours. Finally, after measuring the absorbance at 490 nm using a microplate reader, the relative value compared to 0 nM (% Control) was obtained to confirm the cell growth inhibitory ability of the compound. The measured values were analyzed using Prism program (version 8.0, Graphpad Software, Inc.), and the IC50 value (Inhibition concentration 50), an indicator of the cell growth inhibitory ability of the compound, was calculated.

Assay [2] deals with Ba/F3 EGFR L858R/T790M/C797S (LTC) (Homo sapiens, UniProt P00533, T790M/C797S/L858R, cells depend on it). Description: Cell growth inhibitory ability in Ba/F3 cells overexpressing EGFR L858R/T790M/C797S (MTS, CellTiter 96 AQueous). It counts as cell-based. The note with it: 72 hours, MTS absorbance at 490 nm, read-out: Ba/F3 EGFR triple mutant L858R/T790M/C797S, IC50. The procedure, abridged: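 Ba/F3 cells expressing EGFR L858R/T790M or L858R/T790M/C797S, grown in RPMI/10% FBS with 1 μg/ml puromycin, seeded 24 h then treated with compound (0.1–10000 nM final) for 72 h at 37° C. MTS read at 490 nm after 2–4 h, % of 0 nM control, IC50 calculated.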
Ba/F3 EGFR L858R/T790M/C797S (LTC), sequence (P00533 whole entry T790M/C797S/L858R): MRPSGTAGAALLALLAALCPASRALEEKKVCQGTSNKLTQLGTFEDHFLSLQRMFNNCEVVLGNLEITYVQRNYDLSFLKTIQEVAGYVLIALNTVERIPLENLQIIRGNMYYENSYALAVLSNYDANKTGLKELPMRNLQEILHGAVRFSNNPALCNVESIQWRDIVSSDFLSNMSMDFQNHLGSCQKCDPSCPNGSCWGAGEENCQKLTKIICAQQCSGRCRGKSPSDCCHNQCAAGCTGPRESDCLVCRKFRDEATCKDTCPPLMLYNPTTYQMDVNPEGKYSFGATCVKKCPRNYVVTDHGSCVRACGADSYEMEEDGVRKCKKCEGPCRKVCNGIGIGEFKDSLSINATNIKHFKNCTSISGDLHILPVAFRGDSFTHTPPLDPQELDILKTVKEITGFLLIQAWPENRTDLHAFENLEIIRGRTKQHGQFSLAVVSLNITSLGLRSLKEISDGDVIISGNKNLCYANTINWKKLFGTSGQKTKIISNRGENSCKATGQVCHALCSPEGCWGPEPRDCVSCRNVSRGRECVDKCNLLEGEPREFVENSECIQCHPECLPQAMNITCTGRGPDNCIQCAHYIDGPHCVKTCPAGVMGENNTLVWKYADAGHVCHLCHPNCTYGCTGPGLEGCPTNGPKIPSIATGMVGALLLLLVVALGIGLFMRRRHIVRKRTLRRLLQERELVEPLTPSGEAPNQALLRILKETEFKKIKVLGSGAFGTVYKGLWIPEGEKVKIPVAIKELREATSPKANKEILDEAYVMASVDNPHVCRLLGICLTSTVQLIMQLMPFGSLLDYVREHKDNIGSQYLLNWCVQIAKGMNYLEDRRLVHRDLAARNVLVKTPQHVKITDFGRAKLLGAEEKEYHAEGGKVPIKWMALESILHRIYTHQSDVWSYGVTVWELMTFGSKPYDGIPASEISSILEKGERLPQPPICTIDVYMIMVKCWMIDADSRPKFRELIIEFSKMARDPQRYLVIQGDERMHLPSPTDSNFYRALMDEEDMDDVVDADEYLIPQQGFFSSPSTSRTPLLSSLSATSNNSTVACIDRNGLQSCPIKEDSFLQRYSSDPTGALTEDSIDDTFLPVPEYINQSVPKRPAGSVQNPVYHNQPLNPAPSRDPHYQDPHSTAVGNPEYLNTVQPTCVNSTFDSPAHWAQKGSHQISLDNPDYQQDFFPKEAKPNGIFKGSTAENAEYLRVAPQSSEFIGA

Ba/F3 EGFR L858R/T790M (LT), sequence (P00533 whole entry T790M/L858R): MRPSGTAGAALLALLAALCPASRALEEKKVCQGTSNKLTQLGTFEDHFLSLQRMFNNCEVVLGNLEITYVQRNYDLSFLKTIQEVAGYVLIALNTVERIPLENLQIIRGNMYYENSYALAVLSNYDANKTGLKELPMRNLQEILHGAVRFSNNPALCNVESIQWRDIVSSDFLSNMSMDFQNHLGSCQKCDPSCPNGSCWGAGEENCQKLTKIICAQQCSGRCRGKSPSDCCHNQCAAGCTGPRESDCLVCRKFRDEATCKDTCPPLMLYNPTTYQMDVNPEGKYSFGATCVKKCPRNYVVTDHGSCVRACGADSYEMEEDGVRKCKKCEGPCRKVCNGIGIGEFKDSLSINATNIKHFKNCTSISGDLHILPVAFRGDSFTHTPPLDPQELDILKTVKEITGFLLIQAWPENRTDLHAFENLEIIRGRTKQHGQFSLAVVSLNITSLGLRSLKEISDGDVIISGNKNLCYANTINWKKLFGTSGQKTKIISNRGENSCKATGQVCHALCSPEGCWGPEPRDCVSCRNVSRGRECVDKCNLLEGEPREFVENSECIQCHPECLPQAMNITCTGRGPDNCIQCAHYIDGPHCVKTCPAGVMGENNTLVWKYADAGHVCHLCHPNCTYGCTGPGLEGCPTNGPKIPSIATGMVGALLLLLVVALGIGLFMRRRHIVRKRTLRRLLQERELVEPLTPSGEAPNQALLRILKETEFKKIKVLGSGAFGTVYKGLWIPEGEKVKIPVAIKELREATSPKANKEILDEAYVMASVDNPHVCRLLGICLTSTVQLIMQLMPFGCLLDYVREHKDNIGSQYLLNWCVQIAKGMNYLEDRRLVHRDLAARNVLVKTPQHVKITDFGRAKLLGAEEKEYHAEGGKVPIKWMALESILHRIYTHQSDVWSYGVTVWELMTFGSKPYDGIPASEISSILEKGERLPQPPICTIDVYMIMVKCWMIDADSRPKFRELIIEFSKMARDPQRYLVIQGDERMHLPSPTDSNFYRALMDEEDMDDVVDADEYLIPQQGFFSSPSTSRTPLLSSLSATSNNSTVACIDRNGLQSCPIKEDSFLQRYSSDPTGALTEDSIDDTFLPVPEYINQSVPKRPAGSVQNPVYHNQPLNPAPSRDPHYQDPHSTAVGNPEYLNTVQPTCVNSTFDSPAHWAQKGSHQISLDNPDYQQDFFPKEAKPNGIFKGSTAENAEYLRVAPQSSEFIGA

Take `Cc1cc(C(=O)N[C@@H](c2cc3ccccc3[nH]2)c2cc(F)ccc2O)cc(-c2ncc(N3CCNCC3)cn2)c1` [Example 36, (R)—N-((5-fluoro-2-hydroxyphenyl)(1H-indole-2-yl)methyl)-3-methyl-5-(5-(piperazine-1-yl)pyrimidine-2-yl)benzamide]: the GI50 in assay [1] and in assay [2] was less than 30 nM throughout.

On to `Cc1cc(C(=O)N[C@@H](c2cc3ccccc3[nH]2)c2cc(F)ccc2O)cc(-c2ccc(N3CCC(N)CC3)nn2)c1` [Example 20, (R)-3-(6-(4-aminopiperidine-1-yl)pyridazine-3-yl)-N-((5-fluoro-2-hydroxyphenyl)(1H-indole-2-yl)methyl)-5-methylbenzamide], for which the values for the GI50 in assay [1] and in assay [2] were 30 to 200 nM and more than 200 nM, respectively.

As to `Cc1cc(C(=O)N[C@H](c2cc3ccccc3[nH]2)c2cc(F)ccc2O)cc(-c2ccc(N3CCC(N)CC3)cc2)c1` [Example 31, (S)-4′-(4-aminopiperidine-1-yl)-N-((5-fluoro-2-hydroxyphenyl)(1H-indole-2-yl)methyl)-5-methyl-[1, l′-biphenyl]-3-carboxamide], the GI50 in assay [1] and in assay [2] was more than 200 nM in each case.

As for `Cc1cc(C(=O)N[C@@H](c2cc3ccc(Cl)cc3[nH]2)c2cc(F)ccc2O)cc(-c2ccc(N3CCC(N)CC3)cc2)c1` [Example 27, (R)-4′-(4-aminopiperidine-1-yl)-N-((6-chloro-1H-indole-2-yl)(5-fluoro-2-hydroxyphenyl)methyl)-5-methyl-[1,1′-biphenyl]-3-carboxamide], the GI50 is 30 to 200 nM in assay [1] and more than 200 nM in assay [2].

As to `Cc1cc(C(=O)N[C@@H](c2cc3ccccc3[nH]2)c2cc(F)ccc2O)cc(-c2ncc(N3CCN(C(=O)OC(C)(C)C)CC3)cn2)c1` [Example 35, tert-butyl (R)-4-(2-(3-(((5-fluoro-2-hydroxyphenyl)(1H-indole-2-yl)methyl)carbamoyl)-5-methylphenyl)pyrimidine-5-yl)piperazine-1-carboxylate], the values for the GI50 in assay [1] and in assay [2] were more than 200 nM and less than 30 nM, respectively.

`Cc1cc(C(=O)N[C@@H](c2cc3ccccc3[nH]2)c2cc(F)ccc2O)cc(-c2ccc(N3CCC(N)CC3)cc2F)c1` [Example 24, (R)-4′-(4-aminopiperidine-1-yl)-2′-fluoro-N-((5-fluoro-2-hydroxyphenyl)(1H-indole-2-yl)methyl)-5-methyl-[1,1′-biphenyl]-3-carboxamide]: the GI50 in assay [1] and in assay [2] was less than 30 nM in each case.

On to `CSc1cc(C(=O)N[C@@H](c2cc3ccccc3[nH]2)c2cc(F)ccc2O)cc(-c2ccc(N3CCC(N)CC3)cc2)c1` [Example 8, 4′-(4-aminopiperidine-1-yl)-N-((5-fluoro-2-hydroxyphenyl)(1H-indole-2-yl)methyl)-5-(methylthio)-[1,1′-biphenyl]-3-carboxamide], for which the GI50 in assay [1] and in assay [2] was more than 200 nM in each case.

For `Cc1cc(C(=O)N[C@@H](c2cc3ccc(F)cc3[nH]2)c2cc(F)ccc2O)cc(-c2ccc(N3CCC(N)CC3)cc2)c1` [Example 26, (R)-4′-(4-aminopiperidine-1-yl)-N-((6-fluoro-1H-indole-2-yl)(5-fluoro-2-hydroxyphenyl)methyl)-5-methyl-[1,1′-biphenyl]-3-carboxamide], the GI50 is less than 30 nM in assay [1] and 30 to 200 nM in assay [2].
